Experimental findings from ChEMBL document CHEMBL1201862, “PubChem BioAssay data set” (2004) are described below.

The AC50 is the midpoint of the concentration-response curve, whichever way the signal moves. As usually defined, the IC50 is the concentration at which inhibition is half-maximal.

Series [1] can be described thus: intracellular Trypanosoma cruzi inhibitors in host cells – cell-based, plate reader, cherry-pick samples, set 3, dose response (AID 651818).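 Also: compounds incubated with infected cells for about four days.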 It is filed as functional.
Series [2] is described as follows: cells. It is filed as functional, cell-based.
For series [3], the target named is T1, Nuclear receptor subfamily 0 group B member 1 (Homo sapiens, UniProt P51843).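 Also: HEK293T cells transfected with SF-1 and DAX-1 plus StAR promoter luciferase reporter.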
T1 sequence (P51843 whole entry): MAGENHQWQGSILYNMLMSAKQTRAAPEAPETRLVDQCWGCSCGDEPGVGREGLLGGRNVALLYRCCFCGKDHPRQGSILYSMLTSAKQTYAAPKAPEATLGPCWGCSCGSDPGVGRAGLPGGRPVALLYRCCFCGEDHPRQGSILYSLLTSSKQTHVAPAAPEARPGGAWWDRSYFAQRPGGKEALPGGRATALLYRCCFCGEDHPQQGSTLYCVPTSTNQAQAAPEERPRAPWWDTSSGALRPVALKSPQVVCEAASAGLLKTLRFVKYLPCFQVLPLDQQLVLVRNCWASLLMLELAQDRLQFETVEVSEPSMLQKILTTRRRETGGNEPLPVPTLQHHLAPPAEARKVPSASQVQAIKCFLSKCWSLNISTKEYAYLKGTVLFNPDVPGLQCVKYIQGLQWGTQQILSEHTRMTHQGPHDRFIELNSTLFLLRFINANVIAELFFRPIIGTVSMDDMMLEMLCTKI
It is filed as functional, cell-based.

Series [4] has as its target T2, Short transient receptor potential channel 4 (Mus musculus, UniProt Q9QUQ5).
T2 sequence (Q9QUQ5 whole entry): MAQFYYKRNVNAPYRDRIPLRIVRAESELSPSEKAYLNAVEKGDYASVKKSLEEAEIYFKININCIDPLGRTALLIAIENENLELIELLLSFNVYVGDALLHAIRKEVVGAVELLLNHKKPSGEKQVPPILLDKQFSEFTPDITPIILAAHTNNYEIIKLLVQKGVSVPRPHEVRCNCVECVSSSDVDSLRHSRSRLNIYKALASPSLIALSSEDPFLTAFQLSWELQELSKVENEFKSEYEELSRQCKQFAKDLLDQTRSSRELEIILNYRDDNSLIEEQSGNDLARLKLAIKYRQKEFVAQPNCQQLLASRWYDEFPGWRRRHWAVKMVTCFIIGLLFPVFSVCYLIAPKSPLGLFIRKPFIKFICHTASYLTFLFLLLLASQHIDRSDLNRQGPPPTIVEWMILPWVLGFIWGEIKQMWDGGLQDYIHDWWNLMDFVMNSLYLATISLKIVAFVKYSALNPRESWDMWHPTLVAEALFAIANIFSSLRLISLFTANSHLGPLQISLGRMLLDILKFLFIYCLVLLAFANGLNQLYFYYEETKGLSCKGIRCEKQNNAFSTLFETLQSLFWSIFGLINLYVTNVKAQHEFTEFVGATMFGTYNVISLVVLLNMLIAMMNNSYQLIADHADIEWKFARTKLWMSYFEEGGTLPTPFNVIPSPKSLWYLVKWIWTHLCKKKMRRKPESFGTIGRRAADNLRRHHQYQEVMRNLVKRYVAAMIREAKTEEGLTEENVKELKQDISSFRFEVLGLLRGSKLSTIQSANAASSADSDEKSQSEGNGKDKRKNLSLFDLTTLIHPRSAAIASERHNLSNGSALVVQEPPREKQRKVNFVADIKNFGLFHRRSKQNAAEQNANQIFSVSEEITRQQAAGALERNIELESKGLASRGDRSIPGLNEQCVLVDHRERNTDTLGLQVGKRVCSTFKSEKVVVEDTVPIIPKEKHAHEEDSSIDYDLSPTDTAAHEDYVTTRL
As to the kind of experiment: calcium entry via TRPC4 opening agents – cell-based, HEK293 TRPC4/mu-opioid, Fluo-4 calcium, dose response (AID 434937). It is filed as functional.

Series [5] can be described thus: HIV-1 AD8 envelope cell-cell fusion blockers – cherry-pick, dose response (AID 652062).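 Also: luciferase signal from cell-cell fusion driven by HIV-1 clade B AD8 Env; potency is for inhibitors of fusion seen as a drop in luminescence.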 The format is functional, cell-based.
A short description of series [6]: off-target signal loss in HeLa-CEM21 co-culture – HeLa F-luc CTL cells, cherry-picked, counter-screen for HIV-1 Env fusion inhibitor project, dose response (AID 652040).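 Also: potency for signal decrease marking cytotoxic or nonspecific inhibition.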 It is filed as functional, cell-based. In general terms: A counterscreen serves to expose hits that act by an unwanted route or on another target.
Series [7] is described as follows: blockers of HIV-1 ZM109 envelope-driven cell-cell fusion – HeLa effector, CEM target cells, luciferase, cherry-pick, dose response (AID 652058).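 Also: luciferase signal from HIV-1 Env mediated cell-cell fusion of effector and target cells.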 It is filed as functional, cell-based.
The nature of series [8]: blockers of HIV-1 envelope-mediated cell-cell fusion – cherry-pick, dose response (AID 652057). It is filed as functional, cell-based.
The target of series [9] is Cytochrome P450 2D6 (Homo sapiens, UniProt P10635).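 Also: CYP2D6 member of a cytochrome P450 panel assay.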
Series [10] addresses Cytochrome P450 2C9 (Homo sapiens, UniProt P11712).
In series [11] the target is Cytochrome P450 3A4 (Homo sapiens, UniProt P08684).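 Also: CYP3A4 tested as one member of a cytochrome P450 panel screen.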
Series [12] addresses T3, Corticotropin-releasing factor receptor 2/Corticotropin-releasing factor-binding protein (Homo sapiens, UniProt P24387+Q13324).
T3 sequence (Q13324 whole entry): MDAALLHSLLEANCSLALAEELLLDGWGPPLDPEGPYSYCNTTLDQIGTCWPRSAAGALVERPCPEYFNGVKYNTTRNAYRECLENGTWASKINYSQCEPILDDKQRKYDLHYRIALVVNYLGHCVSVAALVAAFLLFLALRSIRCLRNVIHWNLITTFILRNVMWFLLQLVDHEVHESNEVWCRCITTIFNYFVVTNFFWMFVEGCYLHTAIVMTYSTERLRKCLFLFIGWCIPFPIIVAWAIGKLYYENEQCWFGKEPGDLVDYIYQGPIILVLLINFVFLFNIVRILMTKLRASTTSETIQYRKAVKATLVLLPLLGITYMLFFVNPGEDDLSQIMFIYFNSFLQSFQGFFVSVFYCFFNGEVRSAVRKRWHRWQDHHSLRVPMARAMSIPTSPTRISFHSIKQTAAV
T3 sequence (P24387 whole entry): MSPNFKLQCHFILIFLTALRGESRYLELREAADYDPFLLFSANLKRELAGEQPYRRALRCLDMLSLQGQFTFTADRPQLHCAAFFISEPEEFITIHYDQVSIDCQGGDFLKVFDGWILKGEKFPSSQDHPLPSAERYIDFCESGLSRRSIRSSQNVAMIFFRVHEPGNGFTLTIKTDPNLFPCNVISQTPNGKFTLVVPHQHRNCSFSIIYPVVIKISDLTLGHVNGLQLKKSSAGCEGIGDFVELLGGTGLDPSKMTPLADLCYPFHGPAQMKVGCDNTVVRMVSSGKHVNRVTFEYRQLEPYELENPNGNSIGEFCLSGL
As to the kind of experiment: activators of CRF receptor 2 with binding protein – uHTS hits, confirmation (AID 602473). The format is functional. Particulars: read-out: EC50_Mean.

Series [13] concerns HEK293. As to the kind of experiment: EBV LMP1 TES2 canonical NF-kB signalling blockers – cell-based, HEK293, luciferase, cherry-pick, dose response (AID 588343). The format is functional. Particulars: Homo sapiens.
Series [14] deals with Cytochrome P450 2C19 (Homo sapiens, UniProt P33261). As to the kind of experiment: Cytochrome panel assay with activity outcomes. Panel member name: p450-cyp2c19 Compounds with AC50 equal or less than 10 uM are considered active. It is filed as functional. Particulars: read-out: AC50.
Series [15] deals with T4, Cytochrome P450 1A2 (Homo sapiens, UniProt P05177).
T4 sequence (P05177 whole entry): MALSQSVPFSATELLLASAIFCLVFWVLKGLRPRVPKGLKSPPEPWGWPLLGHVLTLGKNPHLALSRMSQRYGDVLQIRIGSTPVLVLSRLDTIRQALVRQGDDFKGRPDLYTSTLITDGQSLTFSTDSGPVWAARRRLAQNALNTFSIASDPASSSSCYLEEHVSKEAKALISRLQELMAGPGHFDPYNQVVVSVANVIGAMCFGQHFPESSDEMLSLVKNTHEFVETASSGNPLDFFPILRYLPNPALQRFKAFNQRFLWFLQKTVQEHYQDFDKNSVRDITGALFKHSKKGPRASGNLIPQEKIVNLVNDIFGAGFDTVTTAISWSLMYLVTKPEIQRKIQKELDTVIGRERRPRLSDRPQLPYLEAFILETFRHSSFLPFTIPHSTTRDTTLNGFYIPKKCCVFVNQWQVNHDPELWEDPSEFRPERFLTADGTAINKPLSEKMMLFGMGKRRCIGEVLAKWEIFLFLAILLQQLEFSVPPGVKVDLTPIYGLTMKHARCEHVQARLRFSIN

Series [16] can be described thus: toxicity toward HepG2 liver cells – cell-based, plate reader, cherry-pick, antagonist series, cytotoxicity control, dose response (AID 743416). The format is functional.
Series [17] in a line: A549 cell cytotoxicity, dose response, cytotoxicity control, plate reader, cherry-pick, antagonist series (AID 743412). It is filed as functional, cell-based.
Series [18] is described as follows: blockers of bursicon-stimulated LGR2 cAMP reporter – cell-based, HEK293, CRE-luciferase reporter, cherry pick, set 2, dose response (AID 743343).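 Also: transfected cells were stimulated with diluted bursicon conditioned medium after compound addition.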 It is filed as functional.
Series [19] is described as follows: blockade of melanocortin 4 receptor signaling – cell-based, plate reader, cherry pick, counter-screen for LGR2 antagonist project, dose response (AID 743444).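 Also: transfected HEK 293 cells stimulated with alpha-MSH peptide; potency of inhibitors of the alpha-MSH evoked signal.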 It is filed as functional.

Active and inactive are the calls of the source.

Cytochrome P450 2C9, sequence (P11712 whole entry): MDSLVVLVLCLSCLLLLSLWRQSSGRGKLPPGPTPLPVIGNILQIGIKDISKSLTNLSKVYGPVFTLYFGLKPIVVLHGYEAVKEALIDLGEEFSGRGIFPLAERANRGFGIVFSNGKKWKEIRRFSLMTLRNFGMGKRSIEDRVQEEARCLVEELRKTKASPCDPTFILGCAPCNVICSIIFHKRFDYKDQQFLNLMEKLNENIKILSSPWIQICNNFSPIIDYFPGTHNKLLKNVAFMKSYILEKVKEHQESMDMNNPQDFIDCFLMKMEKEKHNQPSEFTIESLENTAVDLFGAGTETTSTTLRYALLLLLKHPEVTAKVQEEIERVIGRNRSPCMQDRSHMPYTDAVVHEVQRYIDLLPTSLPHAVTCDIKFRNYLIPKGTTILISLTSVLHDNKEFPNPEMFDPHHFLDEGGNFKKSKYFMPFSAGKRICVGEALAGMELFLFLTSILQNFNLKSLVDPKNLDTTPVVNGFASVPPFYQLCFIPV
Cytochrome P450 2D6, sequence (P10635 whole entry): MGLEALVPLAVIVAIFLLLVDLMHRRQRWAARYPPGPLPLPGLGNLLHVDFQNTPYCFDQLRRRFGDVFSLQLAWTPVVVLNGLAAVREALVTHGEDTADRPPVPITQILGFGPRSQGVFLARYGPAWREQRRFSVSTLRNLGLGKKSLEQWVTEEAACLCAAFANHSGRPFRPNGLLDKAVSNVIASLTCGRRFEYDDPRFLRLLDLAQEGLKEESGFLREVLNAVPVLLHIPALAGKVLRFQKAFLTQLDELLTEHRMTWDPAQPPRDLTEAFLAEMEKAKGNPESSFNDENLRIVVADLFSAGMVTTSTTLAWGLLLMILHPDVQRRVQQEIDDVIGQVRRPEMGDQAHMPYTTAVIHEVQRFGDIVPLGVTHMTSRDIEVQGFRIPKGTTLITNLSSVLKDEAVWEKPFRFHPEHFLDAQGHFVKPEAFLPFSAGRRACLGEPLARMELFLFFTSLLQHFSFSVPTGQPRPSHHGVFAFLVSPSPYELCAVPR
Cytochrome P450 2C19, sequence (P33261 whole entry): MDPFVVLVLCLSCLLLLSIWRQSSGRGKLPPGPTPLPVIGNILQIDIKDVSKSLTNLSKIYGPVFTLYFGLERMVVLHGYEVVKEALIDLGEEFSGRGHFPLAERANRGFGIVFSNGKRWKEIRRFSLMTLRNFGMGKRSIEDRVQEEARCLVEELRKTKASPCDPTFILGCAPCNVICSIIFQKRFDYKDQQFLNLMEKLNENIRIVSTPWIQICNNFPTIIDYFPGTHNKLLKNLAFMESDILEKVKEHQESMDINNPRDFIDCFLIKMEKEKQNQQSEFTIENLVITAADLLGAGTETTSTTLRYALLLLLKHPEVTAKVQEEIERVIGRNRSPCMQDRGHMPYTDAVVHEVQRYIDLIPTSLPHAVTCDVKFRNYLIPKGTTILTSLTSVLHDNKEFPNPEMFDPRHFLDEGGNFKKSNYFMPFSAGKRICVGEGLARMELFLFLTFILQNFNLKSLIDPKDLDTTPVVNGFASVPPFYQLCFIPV
Cytochrome P450 3A4, sequence (P08684 whole entry): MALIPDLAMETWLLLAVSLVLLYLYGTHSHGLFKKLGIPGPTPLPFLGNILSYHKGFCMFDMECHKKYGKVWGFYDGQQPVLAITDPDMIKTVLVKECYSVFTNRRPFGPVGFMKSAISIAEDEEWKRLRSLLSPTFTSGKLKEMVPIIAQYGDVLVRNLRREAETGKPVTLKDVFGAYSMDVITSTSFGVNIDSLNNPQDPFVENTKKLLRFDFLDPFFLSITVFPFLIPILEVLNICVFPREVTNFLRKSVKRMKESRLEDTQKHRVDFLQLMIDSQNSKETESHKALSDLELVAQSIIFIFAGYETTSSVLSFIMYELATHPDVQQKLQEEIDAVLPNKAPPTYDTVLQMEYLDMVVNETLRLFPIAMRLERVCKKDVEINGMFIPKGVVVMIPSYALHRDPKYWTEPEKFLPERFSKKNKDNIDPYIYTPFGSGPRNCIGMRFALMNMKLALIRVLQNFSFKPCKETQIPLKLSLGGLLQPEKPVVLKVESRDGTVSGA

Regarding `C[C@H](CO)N1C[C@H](C)[C@@H](CN(C)Cc2ccc(Oc3ccccc3)cc2)Oc2c(NC(=O)c3ccc(-c4nccs4)cc3)cccc2C1=O`, in series [1], the concentration at half-maximal activity (AC50) is 3.08 µM (active).
Consider `NC(=O)C1CCN(C(=O)c2cc3c(s2)CCCC3)CC1`, for which the IC50 in series [2] and in series [3] was > 67.6 µM (inactive) in each case.
For `COC(=O)c1ccc(C(S)=NCC2(N(C)C)CCCCC2)cc1`, in series [4], the EC50 is 5.31 µM (active).
Same read-out and setting: for `CCCc1c(O)nc(SCCN(CCC)CCC)nc1O` the value was 2.66 µM (active).
Take `CCOC(=O)c1c(CSc2cccs2)n(C)c2cc(Br)c(O)c(CN(C)C)c12`: the half-maximal activity concentration (AC50) in series [5] is 14.4 µM (active); in series [6], 2.08 µM (active); in [7] it was 1.23 µM (active); in series [8], 1.62 µM (active).
For `C[C@@H]1CN([C@@H](C)CO)S(=O)(=O)c2ccc(-c3cccc(F)c3)cc2O[C@@H]1CN(C)S(=O)(=O)c1ccccc1`, the AC50 is 6.62 µM (active) in series [5], 0.965 µM (active) in [7] and 0.597 µM (active) in [8].
On to `C[C@@H]1CN([C@H](C)CO)C(=O)c2cccc(NS(=O)(=O)c3ccccc3)c2O[C@@H]1CN(C)Cc1ccc(C(=O)Nc2ccccc2N)cc1`, for which the half-maximal activity concentration (AC50) in [1] is 3.53 µM (active).
Take `CCOc1cccc(/C=C/c2ccc3ccccc3n2)c1OC(C)=O`: the IC50 in series [2] and in series [3] was > 67.5 µM (inactive) throughout.
In the case of `C[C@H]1CN([C@@H](C)CO)C(=O)Cc2cc(NC(=O)Nc3ccc(F)cc3)ccc2O[C@@H]1CN(C)Cc1ccc(C(F)(F)F)cc1`, in series [1], the half-maximal activity concentration (AC50) is 4.21 µM (active).
`Cc1cccc(NC(=O)CCSc2nc(C)cc(C)n2)c1`: the AC50 is 22.4 µM (inconclusive) in series [9], “inconclusive” in [10] and 12.6 µM (inconclusive) in series [11].
Turning to `C[C@@H]1CN([C@H](C)CO)C(=O)c2cccc(NC(=O)NC3CCCCC3)c2O[C@H]1CN(C)CC1CCCCC1`, the AC50 in series [1] was 2.5 µM (active).
In the case of `CCOc1ccccc1N(CC(=O)N1CCOCC1)S(=O)(=O)c1ccc(SC)cc1`, the figures for the EC50 in series [12] and in [4] were 2.77 µM (active) and 2.66 µM (active), respectively.
With `C(=N\Nc1ccc2ccccc2n1)/c1ccc2c(c1)OCO2`, the IC50 was > 67.6 µM (inactive) in series [2] and > 0.278 µM (active) in series [3]. Also, in [13], the concentration at half-maximal activity (AC50) was 2.42 µM (active).
With `C[C@@H]1CCCCO[C@H](CN(C)C(=O)Nc2ccc(F)cc2)[C@@H](C)CN([C@H](C)CO)C(=O)c2cc(NC(=O)Nc3ccc(F)cc3)ccc2O1`, the AC50 in series [1] was 5.89 µM (active).
Take `O=C(NCc1ccccc1)C1=C[C@@H](C2CCCCC2)C[C@@H](OCc2ccc(CO)cc2)O1`: in [4], the EC50 is 2.37 µM (active).
As to `Cc1ccc(-c2nc3c(=O)n(C)c4ccccc4c3o2)cc1`, the concentration at half-maximal activity (AC50) result is “inconclusive” in [10] and 8.91 µM (inconclusive) in series [14].
As for `CS(=O)(=O)N1CCC2(CC1)CN(c1cccc(-c3ccccc3)c1)C2`, the AC50 result in [10] is listed as “inconclusive”.
Consider `C[C@@H]1CN([C@@H](C)CO)C(=O)c2cccc(NC(=O)c3nc4ccccc4s3)c2O[C@@H]1CN(C)CC1CCCCC1`, for which the AC50 in series [1] was 7.6 µM (active).
Turning to `CC(C)NC(=O)COC(=O)c1cc(O)nc2ccccc12`, the values for the half-maximal activity concentration (AC50) in series [15] and in series [10] were 7.08 µM (inconclusive) and “inconclusive”, respectively.
As for `COc1ccc2oc(C(=O)NCCc3ccccc3)c(C)c2c1`, the concentration at half-maximal activity (AC50) in [16] was 12.7 µM (active); in [17] it was 8.39 µM (active); in series [18] it was 5.62 µM (active); in series [19] it was 8.65 µM (active); in [13], 2.48 µM (active). Moreover, the IC50 in [2] and in series [3] was > 67.5 µM (inactive) in each case.
As for `CCN1CCN(c2ccc(S(=O)(=O)N3CCCCC3)cc2NC(=O)CC(C)c2ccccc2)CC1` (configuration not stated), in series [4], the EC50 is 1.06 µM (active).
Turning to `COc1ccc(C(=O)CN2CCN(c3ccc(F)cc3)CC2)cc1OC`, the AC50 in [9] is 25.1 µM (inconclusive); in series [10], “inconclusive”.
For the compound `COc1ccc(CNCc2cn(-c3cccc(F)c3)nc2-c2ccc(C)o2)cc1`, the EC50 in series [4] was 5.96 µM (active).
Take `CCc1cc(C(=O)NN=C(S)NCC2CCCO2)cs1` (configuration not stated): the AC50 was 17.8 µM (inconclusive) in series [15], “inconclusive” in series [10] and 7.94 µM (inconclusive) in series [14].
